Earlier results in patent US10525099B2, “Orally disintegrating solid pharmaceutical dosage unit containing a partus control substance” (Oxytone Bioscience B.V., priority 2014, dated 2020).
Bridge positions count the residues as written; N and C are the ends. Square brackets hold non-standard residues; d marks the D form. Peptide text beside a SMILES is read from it. Orn = NCCC[C@H](N)C(=O)O; Mpa = O=C(O)CCS

Assays:
[1] = in vivo
[2] = lyophilized

SMILES	half-life in the blood [1]	time stable at room temperature [2] [weeks]
CC[C@H](C)[C@@H]1NC(=O)[C@H](Cc2ccc(O)cc2)NC(=O)[C@@H](N)CSSC[C@@H](C(=O)N2CCC[C@H]2C(=O)N[C@@H](CC(C)C)C(=O)NCC(N)=O)NC(=O)[C@H](CC(N)=O)NC(=O)[C@H](CCC(N)=O)NC1=O [Oxytocin, cysteine-tyrosine-isoleucine-glutamine-asparagine-cysteine-proline-leucine-glycine-amide]	about three	
CCOc1ccc(C[C@H]2NC(=O)CCSSC[C@@H](C(=O)N3CCC[C@H]3C(=O)N[C@@H](CCCN)C(=O)NCC(N)=O)NC(=O)[C@H](CC(N)=O)NC(=O)[C@H]([C@@H](C)O)NC(=O)[C@H]([C@@H](C)CC)NC2=O)cc1 [atosiban] ([Mpa][dY](Et)ITNCP[Orn]G-NH2; disulfide 1-6)		3
